The values that follow come from patent US12708602B2, “Fermentation extracts, cosmetic composition and manufacturing method of fermentation extracts” (bioMOA Medical, Inc., priority 2023, dated 2026).

For the data set the following is noted: dissolved in purified water (FIG. 3).

As for `N[C@@H](CCC(=O)N[C@@H](CS)C(=O)NCC(=O)O)C(=O)O` [glutathione powder, glutathione], the precipitation entry is reported as “precipitation occurred from the first day”.
